Results published in patent publication US20220160659A1, “PHARMACEUTICAL COMPOSITION COMPRISING a-GALACTOSYLCERAMIDE AND/OR DENDRITIC CELLS PULSED WITH a-GALACTOSYLCERAMIDE” (National University Corporation Hokkaido University, priority 2019, published 2022).

Columns and labels:
[1] = tested on: myocardial dysfunction model mice induced by doxorubicin; test: Echocardiography (left ventricular fractional shortening) after α-GalCer in doxorubicin myocardial dysfunction model; assay type: in vivo, C57BL/6 mice; settings: α-GalCer 0.1 μg/g i.p. 4 days before and 3 days after doxorubicin 20 mg/kg i.p.; echocardiography 14 days after DOX; vs DOX group; FIG. 2
Protocol: (§1) Eight-week-old male C57BL/6 mice were divided into three groups (Control group, DOX group, and DOX+α-GC group). α-GalCer (KRN7000 (Funakoshi Co., Ltd.); 0.1 μg/g weight) was intraperitoneally administered to the DOX+α-GC group, while PBS was intraperitoneally administered to the Control group and the DOX group. Four days after the administration, doxorubicin (Doxorubicin hydrochloride, D1515 (SIGMA-ALDRICH); 20 mg/kg weight) was intraperitoneally administered to the DOX group and the DOX+α-GC group, while Vehicle (PBS) was intraperitoneally administered to the Control group. Three days after the administration of DOX or PBS, α-GalCer (0.1 μg/g weight) was intraperitoneally administered to the DOX+α-GC group, while PBS was intraperitoneally administered to the Control group and the DOX group. Fourteen days after the administration of DOX or PBS, echocardiography was performed for mice of each of the groups to evaluate their cardiac functions, and subsequently, the hearts of the mice were collected to perform pathological evaluation of myocardial tissue fibrosis and evaluation of inflammatory cytokine expression by using a quantitative real-time RT-PCR method. FIG. 1 illustrates the test schedules.
The echocardiography was carried out by using an ultrasound recording device EUB-8000 (Hitachi, Ltd.) under anesthesia with pentobarbital. […]

[2] = tested on: inflammatory cytokine expression in myocardial tissues; test: Inflammatory cytokine gene expression in myocardial tissue, quantitative real-time RT-PCR; assay type: in vivo, C57BL/6 mice; settings: 14 days after DOX
Protocol: as §1
Furthermore, total RNA was extracted from myocardial tissues using QuickGene-810 (FUJIFILM Corporation), and subjected to a reverse transcription reaction using a cDNA reverse transcription kit (Applied Biosystems) to prepare cDNA. Using this cDNA as a template, a quantitative real-time RT-PCR was performed by the TaqMan method to evaluate the expression of inflammatory cytokine. Primer sets and probes used (all of them from Applied Biosystems) were as follows. GAPDH was used as an endogenous control. • IFN-γ: TaqMan Gene Expression Assays, Mm01168134 ml • TNF-α: TaqMan Gene Expression Assays, Mm00443258 ml • IL-1β: TaqMan Gene Expression Assays, Mm00434228 ml • TGF-β1: TaqMan Gene Expression Assays, Mm01178820 ml • IL-4: TaqMan Gene Expression Assays, Mm00445259 ml • IL-10: TaqMan Gene Expression Assays, Mm01288386 ml • GAPDH: Mouse GAPD (20X), Probe dye VIC-MGB

[3] = tested on: myocardial dysfunction model mice induced by doxorubicin; test: Myocardial tissue fibrosis, Picro-sirius Red staining, after α-GalCer; assay type: in vivo, C57BL/6 mice; settings: α-GalCer 0.1 μg/g i.p. before and after doxorubicin 20 mg/kg; heart collected 14 days after DOX; vs DOX group; FIG. 3
Protocol: as §1, with “Three days after the administration of DOX or PBS, α-GalCer (0.1 μg/g weight) was intraperitoneally administered to the DOX+α-GC group, while PBS was intraperitoneally administered to the Control group and the DOX group.” left out, “FIG. 1 illustrates the test schedules.” left out
Myocardial tissue fibrosis was evaluated by fixing a frozen section sample of myocardial tissue with 10% formalin and then staining the sample with 3% Picro-sirius Red (100 ml of Van Gieson Solution P (FUJIFILM Wako Pure Chemical Corporation)+3 ml of 1% Sirius Red (MUTO PURE CHEMICALS CO., LTD.)) to detect collagen. […]

[4] = tested on: activated, M1 and M2 macrophage markers in myocardial tissues; test: Macrophage marker gene expression in myocardial tissue, quantitative real-time RT-PCR; assay type: in vivo, C57BL/6 mice; settings: 14 days after DOX, FIG. 6
Protocol: Eight-week-old male C57BL/6 mice were divided into three groups (Control group, DOX group, and DOX+α-GC group). α-GalCer (KRN7000 (Funakoshi Co., Ltd.); 0.1 μg/g weight) was intraperitoneally administered to the DOX+α-GC group, while PBS was intraperitoneally administered to the Control group and the DOX group. Four days after the administration, doxorubicin (Doxorubicin hydrochloride, D1515 (SIGMA-ALDRICH); 20 mg/kg weight) was intraperitoneally administered to the DOX group and the DOX+α-GC group, while Vehicle (PBS) was intraperitoneally administered to the Control group. Three days after the administration of DOX or PBS, α-GalCer (0.1 μg/g weight) was intraperitoneally administered to the DOX+α-GC group, while PBS was intraperitoneally administered to the Control group and the DOX group. Fourteen days after the administration of DOX or PBS, echocardiography was performed for mice of each of the groups to evaluate their cardiac functions, and subsequently, the hearts of the mice were collected to perform pathological evaluation of myocardial tissue fibrosis and evaluation of inflammatory cytokine expression by using a quantitative real-time RT-PCR method. FIG. 1 illustrates the test schedules. Furthermore, using the above-mentioned cDNA as a template, a quantitative real-time RT-PCR was performed by the TaqMan method using the following primer sets and probes (all of them from Applied Biosystems) to evaluate the expression of CD11c and MHC II (activated macrophage markers), MCP-1, iNOS, and IL-1β (M1 macrophage markers), and […] and Arginase 1 (Arg1) (M2 macrophage markers). GAPDH was used as an endogenous control. • CD11c: TaqMan Gene Expression Assays, Mm00498701 ml • MHC II (H2-A1): TaqMan Gene Expression Assays, Mm00439211 ml • MCP1 (CCL2): TaqMan Gene Expression Assays, Mm00441242 ml • iNOS (NOS2): TaqMan Gene Expression Assays, Mm00440502 ml • IL-1β: TaqMan Gene Expression Assays, Mm00434228 ml • […]: TaqMan Gene Expression Assays, Mm00445109 ml • Arg1: TaqMan Gene Expression Assays, Mm00475988 ml • GAPDH: Mouse GAPD (20X), Probe dye VIC-MGB

[5] = tested on: post-myocardial infarction heart failure; settings: ischemic heart failure; earlier work of the inventors; cited from earlier work
[6] = tested on: pediatric cancer patient having drug-induced myocardial dysfunction caused by an anthracycline anticancer drug; settings: cited from earlier work
[7] = tested on: early breast cancer patient treated with an anthracycline anticancer drug; settings: cited from earlier work
[8] = comparison between the three groups

For CCCCCCCCCCCCCCCCCCCCCCCCCC(=O)N[C@@H](CO[C@H]1O[C@H](CO)[C@H](O)[C@H](O)[C@H]1O)[C@H](O)[C@H](O)CCCCCCCCCCCCCC [α-GalCer, α-galactosylceramide], the “cardiac function, left ventricular fractional shortening (% FS)” value [1] was “did not show the decrease in cardiac function as observed in the DOX group”, the “expression of IFN-γ in myocardial tissue” value ([2]; DOX+α-GC group vs Control and DOX groups, FIG. 5) was “tended to be more enhanced in the DOX+α-GC group than in other groups” and the “expression of interleukin-4 (IL-4) in myocardial tissue” value ([2]; DOX+α-GC group vs Control and DOX groups, GAPDH endogenous control, FIG. 4, FIG. 5) was “tended to be more enhanced in the DOX+α-GC group than in other groups”. The “expression of other cytokines such as IL-10 in myocardial tissue” value ([2]; comparison between Control, DOX and DOX+α-GC groups, FIG. 5) was “any significant difference in the expression of other cytokines such as IL-10 between the three groups was not observed”, the “myocardial tissue fibrosis (ratio of stained area)” value [3] was “the progression as observed in the DOX group was significantly suppressed” and the “expression of Arg1 (M2 macrophage marker) in myocardial tissue” value ([4]; DOX+α-GC group vs other groups) was “more enhanced in the DOX+α-GC group than in other groups”. For the same compound, the “expression of CD11c (activated macrophage marker) in myocardial tissue” value ([4]; DOX+α-GC group vs other groups) was “more enhanced in the DOX+α-GC group than in other groups”, the “expression of MHC II (activated macrophage marker) in myocardial tissue” value ([4]; DOX+α-GC group vs other groups) was “more enhanced in the DOX+α-GC group than in other groups” and the “expression of Retnla (M2 macrophage marker) in myocardial tissue” value ([4]; DOX+α-GC group vs other groups) was “more enhanced in the DOX+α-GC group than in other groups”. The “expression of IL-1β (M1 macrophage marker) in myocardial tissue” value [4, 8] was “any significant difference in the expression of MCP-1, iNOS, and IL-1β as M1 macrophage markers between the three groups was not observed”, the “expression of MCP-1 (M1 macrophage marker) in myocardial tissue” value [4, 8] was “any significant difference in the expression of MCP-1, iNOS, and IL-1β as M1 macrophage markers between the three groups was not observed” and the “expression of iNOS (M1 macrophage marker) in myocardial tissue” value [4, 8] was “any significant difference in the expression of MCP-1, iNOS, and IL-1β as M1 macrophage markers between the three groups was not observed”. For the same compound, the “therapeutic effect on post-myocardial infarction heart failure” value [5] was “confirmed therapeutic effects”.

For CCOC(=O)[C@H](CCc1ccccc1)N[C@@H](C)C(=O)N1CCC[C@H]1C(=O)O [enalapril], the “left ventricular end-systolic wall stress” value [6] is listed as “reduced a left ventricular end-systolic wall stress” and the “other important parameters reflecting a motor ability and the like” value [6] is listed as “failed to improve other important parameters reflecting a motor ability and the like”.

In the case of COCCc1ccc(OCC(O)CNC(C)C)cc1 (stereo not shown) [metoprolol], the “decrease in left ventricular ejection fraction” value [7] is given as “did not prevent the decrease in left ventricular ejection fraction”.
